Test results taken from US9393292B2, “Methods for inducing selective apoptosis” (priority 2010, dated 2016).
Residues, ends and D or L forms follow the SMILES beside them. *: point of attachment. Cbz = O=C(OCc1ccccc1)*; CH2F = FC*

Assays:
CD3+CD19+ T cells = assay: In vitro exposure to AP1903 of patient CD3+CD19+ T cells 5 months after treatment; format: cell-based, human; conditions: patient 2, FACS and quantitative PCR
[1] = cited from earlier work
[2] = test system: iCasp9M.IRES.GFPhigh-transduced CTLs; assay: SCID mouse-human xenograft model: human CD3+/GFP+ T cells in tumors after CID; format: in vivo; conditions: single dose of CID (50 μg AP20187 intraperitoneally); tumors analyzed three days later; versus carrier; listed as dimerizer
[3] = test system: EBV-specific and CMV-specific T cells; assay: Pentamer analysis of virus-specific T cells after AP20187 treatment of allostimulated cells; format: cell-based, human; conditions: 3 weeks post transduction; 4 days allogeneic PBMC; 10 nM AP20187
Experimental: In some experiments, cells also were cultured for 3 weeks post transduction and stimulated with 30G-irradiated allogeneic PBMC at a responder:stimulator ratio of 1:1. After 4 days of co-culture, a portion of cells was treated with 10 nM AP20187. Killing was measured by annexin V/7-AAD staining at 24 hours, and the effect of dimerizer on bystander virus-specific T cells was assessed by pentamer analysis on AP20187-treated and untreated cells.
An observation of note was that many virus-specific T cells were spared when dimerizer was used to deplete gene-modified cells that have been re-activated with allogeneic PBMC, rather than by non-specific mitogenic stimuli. […] Gene-modified allodepleted cells were maintained in culture for 3 weeks post-transduction to allow transgene down-modulation. Cells were stimulated with allogeneic PBMC for 4 days, following which a portion was treated with 10 nM AP20187. The frequency of EBV-specific T cells (see FIG. 14A) and CMV-specific T cells (see FIG. 14B) were quantified by pentamer analysis before allostimulation, after allostimulation, and after treatment of allostimulated cells with dimerizer. The percentage of virus-specific T cells decreased after allostimulation. Following treatment with dimerizer, virus-specific T cells were partially and preferentially retained.

[4] = test system: gene-modified allodepleted cells; assay: Induction of apoptosis with AP20187 in gene-modified allodepleted cells (annexin V/7-AAD); format: cell-based, human
Experimental: (§1) Suicide gene functionality was assessed by adding a small molecule synthetic homodimerizer, AP20187 (Ariad Pharmaceuticals; Cambridge, Mass.), at 10 nM final concentration the day following CD19 immunomagnetic selection. Cells were stained with annexin V and 7-amino-actinomycin (7-AAD)(BD Pharmingen) at 24 hours and analyzed by flow cytometry. Cells negative for both Annexin V and 7-AAD were considered viable, cells that were annexin V positive were apoptotic, and cells that were both annexin V and 7-AAD positive were necrotic. The percentage killing induced by dimerization was corrected for baseline viability as follows: Percentage killing=100%−(% Viability in AP20187-treated cells÷% Viability in nontreated cells).
Cells were maintained in T cell medium containing 50 U/ml IL-2 until 22 days after transduction. A portion of cells was reactivated on 24-well plates coated with […] OKT3 and 1 μg/ml anti-CD28 (Clone CD28.2, BD Pharmingen, San Jose, Calif.) for 48 to 72 hours. CD19 expression and suicide gene function in both reactivated and non-reactivated cells were measured on day 24 or 25 post transduction.

iCasp9-transduced MSCs = assay: Apoptosis of undifferentiated iCasp9-transduced MSCs after CID (annexin V-PE/7-AAD FACS); format: cell-based, human
Experimental: Undifferentiated MSCs. The chemical inducer of dimerization (CID) (AP20187; ARIAD Pharmaceuticals, Cambridge, Mass.) was added at 50 nM to iCasp9-transduced MSCs cultures in complete medium. Apoptosis was evaluated 24 hours later by FACS analysis, after cell harvest and staining with annexin V-PE and 7-AAD in annexin V binding buffer (BD Biosciences, San Diego, Calif.). Control iCasp9-transduced MSCs were maintained in culture without exposure to CID.

[5] = test system: iCasp9-ΔCD19-transduced MSCs; assay: In vivo killing of iCasp9-transduced MSCs in SCID mice (luminescence imaging, qPCR); design: species or system mouse
non-transduced cells = assay: Viability of non-transduced cells with AP20187; format: cell-based, human; conditions: non-transduced cells (n=6)
Experimental: as §1
The day following immunomagnetic selection, 10 nM of the chemical inducer of dimerization, AP20187, was added to induce apoptosis, which appeared within 24 hours. […] Killing efficiency after correction for baseline viability was about 92.9%±3.8%. Large-scale CD19 selection produced cells that were killed with similar efficiency as small-scale selection: mean viability with and without AP20187, and percentage killing, in large and small scale were about 3.9%, about 84.0%, about 95.4% (n=3) and about 6.6%, about 79.3%, about 91.4% (n=5) respectively. […]

[6] = test system: iCasp9M.IRES.IL-12-transduced cells; assay: IL-12 ELISA of culture supernatant of iCasp9M.IRES.IL-12-transduced EBV-CTLs after CID; format: cell-based, human; conditions: after 10 nM CID; detection limit 7.8 pg/mL
[7] = test system: F-Casp9M.I.GFPhigh-transduced T cells; assay: Annexin-V/7-AAD staining and microscopy of F-Casp9M.I.GFPhigh-transduced T cells after CID; format: cell-based, human; conditions: zVAD-fmk 100 μM for 1 hour prior to adding CID
[8] = two injections of 50 μg of CID 24 hours apart, seven days after implantation

## CC[C@H](C(=O)N1CCCC[C@H]1C(=O)O[C@H](CCc1ccc(OC)c(OC)c1)c1cccc(OCC(=O)NCCNC(=O)COc2cccc([C@@H](CCc3ccc(OC)c(OC)c3)OC(=O)[C@@H]3CCCCN3C(=O)[C@@H](CC)c3cc(OC)c(OC)c(OC)c3)c2)c1)c1cc(OC)c(OC)c(OC)c1 (relative stereo) [AP1903, 2-Piperidinecarboxylic acid, 1-[(2S)-1-oxo-2-(3,4,5-trimethoxyphenyl)butyl]-, 1,2-ethanediylbis[imino(2-oxo-2,1-ethanediyl)oxy-3,1-phenylene[(1R)-3-(3,4-dimethoxyphenyl)propylidene]]ester, [2S-[1(R*),2R[S[S*[1(R*),2R*]]]]]-(9Cl)]
CD3+CD19+ T cells
  sensitivity of CD3+CD19+ cells to AP1903 in vitro: retain sensitivity
[1]; 0.01-1.0 mg/kg dose range, IV infusion over 2 hours
  mean Cmax / maximal plasma level: 10 to 1275 ng/mL
[1]; 0.01-1.0 mg/kg
  plasma levels versus dose: directly proportional to dose
[1]; 1 volunteer at 1.0 mg/kg, 3 minutes after start of infusion, resolved after 32 minutes
  adverse event considered possibly related to AP1903: vasodilatation
[1]; Phase 1 study in volunteers
  serious adverse events: No serious adverse events
[1]; following each treatment, all mild in severity
  incidence of adverse events: very low

## CC[C@H](C(=O)N1CCCC[C@H]1C(=O)O[C@H](CCc1ccc(OC)c(OC)c1)c1cccc(OCC(=O)NCC(CNC(=O)COc2cccc([C@@H](CCc3ccc(OC)c(OC)c3)OC(=O)[C@@H]3CCCCN3C(=O)[C@@H](CC)c3cc(OC)c(OC)c(OC)c3)c2)CN(C)C)c1)c1cc(OC)c(OC)c(OC)c1 [AP20187]
[2]
  reduction in the number of human CD3+/GFP+ T cells: more than 99%
[3]
  viral reactive subpopulations (HLA pentamers, EBV and CMV): spares (and thereby enriches) viral reactive subpopulations
[4]; 10 nM AP20187, day after CD19 selection, 24 hours
  cells remaining viable: about 5.5%±2.5%
[4]; listed as small-molecule dimerizer
  apoptosis / elimination of iCasp9-modified T cells after dimerizer (summary statements): > 90%
iCasp9-transduced MSCs; 50 nM CID, 24 hours, FACS example
  annexin positive, iCasp9-CD19-positive cells (iCasp pos/CID): Ninety-three
iCasp9-transduced MSCs; magnetic immunoselection of iCasp9-CD19-positive cells
  selected cells apoptotic after exposure to CID: More than 95%
[5]; 1:1 mixture of doubly and singly transduced MSCs, two doses of CID
  killing / depletion of iCasp9-positive cells (qPCR): > 99%
[5]; mouse, in vivo
  proportion of surviving iCasp9-positive cells: 0.7 % of the original population
[5]; [8]
  luminescence signal of MSCs transduced with iCasp9: quickly killed
  luminescence signal of cells negative for iCasp9: not affected
non-transduced cells
  viability with AP20187: about 86%±9%
[6]
  IL-12 in the supernatant: < 7.8 pg/mL

## COC(=O)C[C@H](NC(=O)[C@H](C)NC(=O)[C@@H](NC(=O)OCc1ccccc1)C(C)C)C(=O)CF [zVAD-fmk] (Cbz-Val-Ala-Asp(OMe)-CH2F)
[7]
  CID-induced apoptosis: inhibited
